Reference: patent US11945826B2, “Hydroxypyridoxazepines as NRF2 activators” (GLAXOSMITHKLINE INTELLECTUAL PROPERTY DEVELOPMENT LIMITED, priority 2019, dated 2024)

These molecules were tested on Nrf2 (NQO1 activity in BEAS-2B cells) (assay: BEAS-2B NQO1 MTT Assay). Details: Homo sapiens, 48 hours, NQO1 specific activity induction, read-out: EC50.
Type: cell-based
Source text: NAD(P)H:quinone oxidoreductase 1 (NQO1), also called DT diaphorase, is a homodimeric FAD-containing enzyme that catalyzes obligatory NAD(P)H-dependent two-electron reductions of quinones and protects cells against the toxic and neoplastic effects of free radicals and reactive oxygen species arising from one-electron reductions. The transcription of NQO1 is finely regulated by Nrf2, and thus NQO1 activity is a good marker for Nrf2 activation. On day one, frozen BEAS-2B cells (ATCC) were thawed in a water bath, counted, and re-suspended at a concentration of 250,000 cells/mL. Fifty microliters of cells were plated in 384 well black clear-bottomed plates. Plates were incubated at 37° C., 5% CO2 overnight. On day two, plates were centrifuged and 50 nL of compound or controls were added to the cells. Plates were then incubated at 37° C., 5% CO2 for 48 hours. On day four, medium was aspirated from the plate and crude cell lysates were made by adding 13 μL of 1× Cell Signalling Technologies lysis buffer with 1 Complete, Mini, EDTA-free Protease Inhibitor Tablet (Roche) for each 10 mL of lysis buffer. After lysis plates were incubated for 20 minutes at room temperature. Two microliters of lysate were removed for use in Cell Titer Glo assay (Promega) and MTT cocktail was prepared (Prochaska et. al. 1998) for measurement of NQO1 activity. Fifty microliters of MTT cocktail was added to each well, plate was centrifuged, and analyzed on an Envision plate reader (Perkin Elmer) using Absorbance 570 nm label for 30 minutes. Product formation was measured kinetically and the pEC50 of NQO1 specific activity induction was calculated by plotting the change in absorbance (Delta OD/min) versus the log of compound concentration followed by 3-parameter fitting.
EC50s<1 nM (+++++), EC50s 1 nM-10 nM (++++), EC50s 10 nM-100 nM (+++), EC50s 100 nM-1 μM (++), EC50s 1 μM-10 μM (+).

SMILES | EC50
Cc1ccc([C@@H](c2ccc3c(nnn3C)c2C)C(C)(C)C(=O)O)cc1CN1Cc2nc(O)ccc2O[C@@H](C(F)(F)F)C1 [Example 21, (S)-3-(1,4-dimethyl-1H-benzo[d][1,2,3]triazol-5-yl)-3-(3-(((R)-7-hydroxy-2-(trifluoromethyl)-2,3-dihydropyrido[2,3-f][1,4]oxazepin-4(5H)-yl)methyl)-4-methylphenyl)-2,2-dimethylpropanoic acid] | 10 to 100 nM
Cc1ccc([C@@H](c2ccc3c(nnn3C)c2C)C(C)(C)C(=O)O)cc1CN1Cc2nc(O)ccc2O[C@H](C)C1 [Example 14, (S)-3-(1,4-dimethyl-1H-benzo[d][1,2,3]triazol-5-yl)-3-(3-(((R)-7-hydroxy-2-methyl-2,3-dihydropyrido[2,3-f][1,4]oxazepin-4(5H)-yl)methyl)-4-methylphenyl)-2,2-dimethylpropanoic acid] | 1 to 10 nM
Cc1ccc([C@H](CC(=O)O)c2ccc3c(nnn3C)c2C)cc1CN1Cc2nc(O)ccc2O[C@H](C(F)(F)F)C1 [Example 25, (S)-3-(1,4-dimethyl-1H-benzo[d][1,2,3]triazol-5-yl)-3-(3-(((S)-7-hydroxy-2-(trifluoromethyl)-2,3-dihydropyrido[2,3-f][1,4]oxazepin-4(5H)-yl)methyl)-4-methylphenyl)propanoic acid] | 10 to 100 nM
Cc1ccc([C@@H](c2ccc3c(nnn3C)c2C)C(C)(C)C(=O)O)cc1CN1Cc2nc(O)ccc2O[C@@H](C)C1 [Example 23, (S)-3-(1,4-dimethyl-1H-benzo[d][1,2,3]triazol-5-yl)-3-(3-(((S)-7-hydroxy-2-methyl-2,3-dihydropyrido[2,3-f][1,4]oxazepin-4(5H)-yl)methyl)-4-methylphenyl)-2,2-dimethylpropanoic acid] | 10 to 100 nM
Cc1ccc([C@@H](CC(=O)O)c2ccc3c(nnn3C)c2C)cc1CN1Cc2nc(O)ccc2OC2(CCC2)C1 [Example 29] | 10 to 100 nM
Cc1ccc([C@@H](CC(=O)O)c2ccc3c(nnn3C)c2C)cc1CN1Cc2nc(O)ccc2O[C@H](C(F)(F)F)C1 [Example 6, (R)-3-(1,4-dimethyl-1H-benzo[d][1,2,3]triazol-5-yl)-3-(3-(((S)-7-hydroxy-2-(trifluoromethyl)-2,3-dihydropyrido[2,3-f][1,4]oxazepin-4(5H)-yl)methyl)-4-methylphenyl)propanoic acidacid] | 10 to 100 nM
Cc1ccc([C@H](CC(=O)O)c2ccc3c(nnn3C)c2C)cc1CN1Cc2nc(O)ccc2O[C@@H](C(C)C)C1 [Example 9, (S)-3-(1,4-dimethyl-1H-benzo[d][1,2,3]triazol-5-yl)-3-(3-(((S)-7-hydroxy-2-isopropyl-2,3-dihydropyrido[2,3-f][1,4]oxazepin-4(5H)-yl)methyl)-4-methylphenyl)propanoic acid] | 100 to 1000 nM
Cc1ccc([C@@H](CC(=O)O)c2ccc3c(nnn3C)c2C)cc1CN1Cc2nc(O)ccc2O[C@@H](C(C)C)C1 [Example 2, (R)-3-(1,4-dimethyl-1H-benzo[d][1,2,3]triazol-5-yl)-3-(3-(((S)-7-hydroxy-2-isopropyl-2,3-dihydropyrido[2,3-f][1,4]oxazepin-4(5H)-yl)methyl)-4-methylphenyl)propanoic acid] | 100 to 1000 nM
CC[C@H]1CN(Cc2cc([C@@H](c3ccc4c(nnn4C)c3C)C(C)(C)C(=O)O)ccc2C)Cc2nc(O)ccc2O1 [Example 18, (S)-3-(1,4-dimethyl-1H-benzo[d][1,2,3]triazol-5-yl)-3-(3-(((S)-2-ethyl-7-hydroxy-2,3-dihydropyrido[2,3-f][1,4]oxazepin-4(5H)-yl)methyl)-4-methylphenyl)-2,2-dimethylpropanoic acid] | 1 to 10 nM
CC[C@@H]1CN(Cc2cc([C@@H](c3ccc4c(nnn4C)c3C)C(C)(C)C(=O)O)ccc2C)Cc2nc(O)ccc2O1 [Example 13, (S)-3-(1,4-dimethyl-1H-benzo[d][1,2,3]triazol-5-yl)-3-(3-(((R)-2-ethyl-7-hydroxy-2,3-dihydropyrido[2,3-f][1,4]oxazepin-4(5H)-yl)methyl)-4-methylphenyl)-2,2-dimethyl propanoic acid] | < 1 nM
Cc1ccc([C@H](CC(=O)O)c2ccc3c(nnn3C)c2C)cc1CN1Cc2nc(O)ccc2O[C@@H](C(F)(F)F)C1 [Example 28, (S)-3-(1,4-dimethyl-1H-benzo[d][1,2,3]triazol-5-yl)-3-(3-(((R)-7-hydroxy-2-(trifluoromethyl)-2,3-dihydropyrido[2,3-f][1,4]oxazepin-4(5H)-yl)methyl)-4-methylphenyl)propanoic acid] | 1000 to 10000 nM
CC[C@@]1(C)CN(Cc2cc([C@@H](CC(=O)O)c3ccc4c(nnn4C)c3C)ccc2C)Cc2nc(O)ccc2O1 [Example 27, (R)-3-(1,4-dimethyl-1H-benzo[d][1,2,3]triazol-5-yl)-3-(3-(((S)-2-ethyl-7-hydroxy-2-methyl-2,3-dihydropyrido[2,3-f][1,4]oxazepin-4(5H)-yl)methyl)-4-methylphenyl)propanonic acid] | 10 to 100 nM
CC[C@@H]1CN(Cc2cc([C@@H](CC(=O)O)c3ccc4c(nnn4C)c3C)ccc2C)Cc2nc(O)c(F)cc2O1 [Example 22, (R)-3-(1,4-dimethyl-1H-benzo[d][1,2,3]triazol-5-yl)-3-(3-(((R)-2-ethyl-8-fluoro-7-hydroxy-2,3-dihydropyrido[2,3-f][1,4]oxazepin-4(5H)-yl)methyl)-4-methylphenyl)propanoic acid] | 1 to 10 nM
Cc1ccc([C@@H](c2ccc3c(nnn3C)c2C)C(C)(C)C(=O)O)cc1CN1Cc2nc(O)ccc2O[C@H](C(F)(F)F)C1 [Example 19, (S)-3-(1,4-dimethyl-1H-benzo[d][1,2,3]triazol-5-yl)-3-(3-(((S)-7-hydroxy-2-(trifluoromethyl)-2,3-dihydropyrido[2,3-f][1,4]oxazepin-4(5H)-yl)methyl)-4-methylphenyl)-2,2-dimethylpropanoic acid] | < 1 nM
Cc1ccc([C@@H](c2ccc3c(nnn3C)c2C)C(C)(C)C(=O)O)cc1CN1Cc2nc(O)ccc2OC(C)(C)C1 [Example 17, (S)-3-(1,4-dimethyl-1H-benzo[d][1,2,3]triazol-5-yl)-3-(3-((7-hydroxy-2,2-dimethyl-2,3-dihydropyrido[2,3-f][1,4]oxazepin-4(5H)-yl)methyl)-4-methylphenyl)-2,2-dimethylpropanoic acid] | 1 to 10 nM
Cc1ccc([C@@H](CC(=O)O)c2ccc3c(nnn3C)c2C)cc1CN1Cc2nc(O)ccc2O[C@H](C(C)(C)C)C1 [Example 30, (R)-3-(3-(((R)-2-(tert-butyl)-7-hydroxy-2,3-dihydropyrido[2,3-f][1,4]oxazepin-4(5H)-yl)methyl)-4-methylphenyl)-3-(1,4-dimethyl-1H-benzo[d][1,2,3]triazol-5-yl)propanoic acid] | 10 to 100 nM
Cc1ccc([C@H](CC(=O)O)c2ccc3c(nnn3C)c2C)cc1CN1Cc2nc(O)ccc2O[C@H](C(C)C)C1 [Example 8, (S)-3-(1,4-dimethyl-1H-benzo[d][1,2,3]triazol-5-yl)-3-(3-(((R)-7-hydroxy-2-isopropyl-2,3-dihydropyrido[2,3-f][1,4]oxazepin-4(5H)-yl)methyl)-4-methylphenyl)propanoic acid] | 10 to 100 nM
Cc1ccc([C@@H](CC(=O)O)c2ccc3c(nnn3C)c2C)cc1CN1Cc2nc(O)ccc2OC(C)(C)C1 [Example 5, (R)-3-(1,4-dimethyl-1H-benzo[d][1,2,3]triazol-5-yl)-3-(3-((7-hydroxy-2,2-dimethyl-2,3-dihydropyrido[2,3-f][1,4]oxazepin-4(5H)-yl)methyl)-4-methylphenyl)propanoic acid] | 10 to 100 nM
Cc1ccc([C@@H](CC(=O)O)c2ccc3c(nnn3C)c2C)cc1CN1Cc2nc(O)ccc2O[C@H](C)C1 [Example 4, (R)-3-(1,4-dimethyl-1H-benzo[d][1,2,3]triazol-5-yl)-3-(3-(((R)-7-hydroxy-2-methyl-2,3-dihydropyrido[2,3-f][1,4]oxazepin-4(5H)-yl)methyl)-4-methylphenyl)propanoic acid] | 10 to 100 nM
Cc1ccc([C@@H](c2ccc3c(nnn3C)c2C)C(C)(C)C(=O)O)cc1CN1Cc2nc(O)ccc2O[C@@H](C(C)C)C1 [Example 16, (S)-3-(1,4-dimethyl-1H-benzo[d][1,2,3]triazol-5-yl)-3-(3-(((S)-7-hydroxy-2-isopropyl-2,3-dihydropyrido[2,3-f][1,4]oxazepin-4(5H)-yl)methyl)-4-methylphenyl)-2,2-dimethylpropanoic acid] | 1 to 10 nM
CC[C@H]1CN(Cc2cc([C@@H](CC(=O)O)c3ccc4c(nnn4C)c3C)ccc2C)Cc2nc(O)ccc2O1 [Example 7, (R)-3-(1,4-dimethyl-1H-benzo[d][1,2,3]triazol-5-yl)-3-(3-(((S)-2-ethyl-7-hydroxy-2,3-dihydropyrido[2,3-f][1,4]oxazepin-4(5H)-yl)methyl)-4-methylphenyl)propanoic acid] | 100 to 1000 nM
